{
  "source": "patent US20030082610A1",
  "about": "“Use of a gene change in gene GNB3 coding for the B3 subunit of human G proteins” (SniP Biotech GmbH & Co. KG, priority 2001, published 2003)",
  "assay": "placebo-controlled clinical study on the gene-dependent (GNB3 C825T) effectiveness of Sibutramine for weight reduction",
  "assay_type": "in vivo, human",
  "procedure": "A placebo-controlled clinical study on the gene-dependent effectiveness of Sibutramine was carried out. This study included 105 patients with a body-mass index between 30 and 40 kg/m^2. All patients received a reduced calorie diet of maximum 1500-2000 kcal per day. Moreover the patients were urged to increase their physical activity and for example to walk at least 30 minutes a day at an increased pace. Forty nine patients received 15 mg Sibutramine daily to support weight reduction, while 56 patients received a placebo. The therapy was continued for 54 weeks. The body weight and body size of all patients were known at the beginning of the study and after 54 weeks of therapy. The end points of the study were the weight loss after 54 weeks, the number of patients with at least 5% reduction in body weight, and the number of patients with at least 10% reduction of body weight.\nFrom all patients, DNA was isolated from a blood sample in order to analyze the C825T allele status in gene GNB3. Genotyping was done by means of PCR reaction and restriction analysis in processes familiar to one skilled in the area. The study results are shown in the graph of FIG. 1. In the placebo group, the average weight reduction was 5.3±7.3 kg, while the weight loss in the group treated with Sibutramine was 10.0±8.7 kg. This difference was statistically significant (p=0.036). FIG. 1 illustrates the genotype-dependent weight loss. In the placebo group, the average weight reduction was 9.1±2.8 kg for the TT genotype, 7.4±1.5 kg for the TC genotype, but only 2.8±1.1 kg for the CC genotype. This difference was statistically significant (One-way ANOVA, P=0.03).",
  "data": [
    {"smiles": "CC(C)CC(N(C)C)C1(c2ccc(Cl)cc2)CCC1", "note": "(stereo not shown) [Sibutramine]", "values": [
      {"measurement": "odds ratio (OR) for a 5% weight loss, Sibutramine compared to placebo", "setting": "825T allele carriers, 54 weeks, p=0.26, not significant", "result": 1.8},
      {"measurement": "odds ratio (OR) for a 10% weight loss, Sibutramine compared to placebo", "setting": "825T allele carriers, 54 weeks, p=0.4", "result": 1.6},
      {"measurement": "weight loss", "setting": "CC genotype (825C allele carrier), 15 mg Sibutramine daily, 54 weeks", "result": 9.9, "unit": "kg"},
      {"measurement": "odds ratio (OR) for a 5% weight reduction, long-term, Sibutramine versus placebo", "setting": "CC genotype, re-examined 2 years after the end of the study, p=0.0358", "result": 4.4},
      {"measurement": "further weight loss compared to placebo", "setting": "TT/TC genotype (825T allele carriers), 15 mg Sibutramine daily, 54 weeks", "result": "no further weight loss compared to the placebo"},
      {"measurement": "weight loss (average weight reduction)", "setting": "all genotypes, patients BMI 30-40 kg/m^2, 15 mg Sibutramine daily plus reduced calorie diet and physical activity, after 54 weeks", "result": "10.0 ± 8.7", "unit": "kg"},
      {"measurement": "effect of Sibutramine compared to placebo on weight loss", "setting": "carriers of the 3882A allele and the 5249G allele", "result": "same favorable results as for the 825C allele carrier"},
      {"measurement": "odds ratio (OR) for a 5% weight reduction, long-term, Sibutramine versus placebo", "setting": "genotype not printed (contrasted with CC), 2 years after the end of the study, p 0.2139, not significant", "result": 2.333},
      {"measurement": "odds ratio (OR) for losing more than 5% body weight, Sibutramine compared to placebo", "setting": "homozygotic 825C allele carriers (CC genotype), 54 weeks, p 0.0002", "result": 12.0},
      {"measurement": "odds ratio (OR) for the 10% weight reduction, Sibutramine compared to placebo", "setting": "homozygotic 825C allele carriers (CC genotype), 54 weeks, p 0.0028", "result": 9.69}
    ]}
  ]
}
